# PMC12051620, “Molecular basis underlying the specificity of an antagonist AA92593 for mammalian melanopsins” (The Journal of Biological Chemistry, 2025)
# How the values were obtained:
# [1] = target: T1, human melanopsin F94^2.61C/S188^ECL2T/S269^6.52A mutant (Homo sapiens, UniProt Q9UHM6, F127C/S222T/S313A); assay: GsX GloSensor assay with Gsα/q11; type: cell-based; conditions: 16.7 μM AA92593, COS-1 cells
# T1 construct: expressed in transfected cells; host or cells: COS-1
# Excerpt: (§1) The single substitutions F94^2.61C, S188^ECL2T, and S269^6.52A in mammalian melanopsins reduced the inhibitory effects of AA92593 (Figs. 2G and 3E). We suspected that the combination of these substitutions would further decrease the AA92593 effect. We thus introduced the triple substitutions F94^2.61C/S188^ECL2T/S269^6.52A into human and mouse melanopsins and examined the inhibitory effects of AA92593. In both mammalian melanopsins, the F94^2.61C/S188^ECL2T/S269^6.52A substitution reduced the inhibitory effect of AA92593 more than the single substitutions (∼63% and ∼35% reductions for human and mouse melanopsins, respectively) (Figs. 2, F and G, 3, D and E).
# (§2) For GloSensor assay, opsins, GloSensor assay sensor (coded by pGlo-22F), and NanoBiT-tagged G proteins were transiently expressed in COS-1 cells (kindly provided from Dr David Farrens, Oregon Health and Science University) using PEI as described previously ([24], [52]). For the GsX GloSensor assay ([12], [13]), each well of a 96-well assay plate (Corning) was transfected with 50 ng opsin plasmid, 16.7 ng G protein plasmid, 50 ng pGlo-22F plasmid (Promega), and 500 ng PEI in 25 μl Opti-mem and 75 μl Dulbecco's modified Eagle's medium (D-MEM). […] For GFP-fluorescence microscopy, a 35-mm cell culture dish (IWAKI) was transfected with 2 μg melanopsin-GFP plasmid and 8 μg PEI in 400 μl Opti-mem and 1.2 ml D-MEM. […]
# [2] = target: T2, mouse melanopsin F94^2.61C/S188^ECL2T/S269^6.52A mutant (Mus musculus, UniProt Q9QXZ9, F126C/S221T/S310A); assay: GsX GloSensor assay with Gsα/q11; type: cell-based; conditions: 16.7 μM AA92593, COS-1 cells
# T2 construct: expressed in transfected cells; host or cells: COS-1
# T2 sequence (Q9QXZ9 1-381 F126C/S221T/S310A): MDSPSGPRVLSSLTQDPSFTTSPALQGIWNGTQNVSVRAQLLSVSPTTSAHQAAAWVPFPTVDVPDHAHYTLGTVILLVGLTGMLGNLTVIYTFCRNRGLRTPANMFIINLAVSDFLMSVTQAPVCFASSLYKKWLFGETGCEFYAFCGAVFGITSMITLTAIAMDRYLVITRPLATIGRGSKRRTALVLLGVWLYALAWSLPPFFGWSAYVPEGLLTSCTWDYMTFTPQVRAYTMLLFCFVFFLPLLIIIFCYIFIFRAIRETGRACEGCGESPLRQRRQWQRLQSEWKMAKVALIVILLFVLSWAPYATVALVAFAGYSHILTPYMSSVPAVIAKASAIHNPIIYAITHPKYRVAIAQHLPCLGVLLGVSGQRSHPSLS
# Excerpt: as §1, §2
# T1 sequence (Q9UHM6 1-384 F127C/S222T/S313A): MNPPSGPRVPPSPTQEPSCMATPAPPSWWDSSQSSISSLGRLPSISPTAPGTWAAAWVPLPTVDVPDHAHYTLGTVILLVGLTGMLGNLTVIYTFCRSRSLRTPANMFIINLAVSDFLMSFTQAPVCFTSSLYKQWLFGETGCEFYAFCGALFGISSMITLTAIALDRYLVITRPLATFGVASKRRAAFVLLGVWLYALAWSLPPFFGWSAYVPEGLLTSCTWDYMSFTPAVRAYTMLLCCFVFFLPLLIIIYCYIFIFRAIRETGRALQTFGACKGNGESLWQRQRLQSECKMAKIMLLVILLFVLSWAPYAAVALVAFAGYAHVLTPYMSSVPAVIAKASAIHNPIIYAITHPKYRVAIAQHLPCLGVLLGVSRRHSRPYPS
smiles,measurement,setting,value
COc1ccc(S(=O)(=O)N2CCCCC2)cc1C [AA92593],reduction of the inhibitory effect of AA92593 vs WT,[1],~63%
same,reduction of the inhibitory effect of AA92593 vs WT,[2],~35%
